Reference: the supplement of paper PMC9013687
± gives the standard deviation of the averaged measurements.

Legend:
Danio rerio embryo [1] = conditions: exposure time: 4 dpf
Experimental: (§1)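 Zebrafish embryos (UFZ-OBI strain) were exposed from 2 hpf for 48 h (2 dpf) or 96 h (4 dpf) at 28 °C; spontaneous tail coiling was scored at 25 hpf. Morphological features from automated image analysis (FishInspector), heart rate and locomotor response were fitted with drc models. Quantal endpoints were dichotomised at 2.5 SD from controls and fitted with a log-logistic model; heart rate, pigmentation and STC were normalised to the replicate control mean. Betamethasone was tested as betamethasone dipropionate, diflorasone as diflorasone diacetate.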

Danio rerio embryo [2] = tested on: Danio rerio embryo
Experimental: as §1

Danio rerio embryo [3] = tested on: Danio rerio embryo; remark: listed apart in the source
Experimental: as §1

Danio rerio embryo [4] = conditions: exposure time: 4 dpf; remark: listed apart in the source
Experimental: as §1

Danio rerio embryo [5] = assay: EC50 Eye size_Decrease
Experimental: as §1

Danio rerio embryo [6] = assay: EC50 Curvature_Increase
Experimental: as §1

Danio rerio embryo [7] = assay: EC50 Body length_Decrease
Experimental: as §1

Danio rerio embryo [8] = assay: EC50 Bladder size_Decrease; conditions: exposure time: 4 dpf
Experimental: as §1

Danio rerio embryo [9] = assay: EC50 Pericard size_Increase; conditions: exposure time: 4 dpf
Experimental: as §1

Danio rerio embryo [10] = assay: EC50 Eye-jaw distance_Decrease; conditions: exposure time: 4 dpf
Experimental: as §1

Danio rerio embryo [11] = assay: EC50 Otolith-eye distance_Decrease; conditions: exposure time: 4 dpf
Experimental: as §1

Danio rerio embryo [12] = assay: EC10 LMR dark; higher = less potent; conditions: exposure time: 4 dpf
Experimental: as §1

Danio rerio embryo [13] = assay: EC20 LMR dark; higher = less potent; conditions: exposure time: 4 dpf
Experimental: as §1

Danio rerio embryo [14] = assay: EC10 Lack of SB; higher = less potent; conditions: exposure time: 4 dpf
Experimental: as §1

Danio rerio embryo [15] = assay: EC20 Lack of SB; higher = less potent; conditions: exposure time: 4 dpf
Experimental: as §1

Danio rerio embryo [16] = assay: EC20 Any effect; higher = less potent
Experimental: as §1

Danio rerio embryo [17] = assay: EC10 Any effect; higher = less potent
Experimental: as §1

Danio rerio embryo [18] = assay: EC20 STC bell shape; higher = less potent; conditions: exposure time: 25 h
Experimental: as §1

Danio rerio embryo [19] = assay: EC10 STC bell shape; higher = less potent; conditions: exposure time: 25 h
Experimental: as §1

Danio rerio embryo [20] = assay: EC20 Eye size_Decrease; higher = less potent
Experimental: as §1

Danio rerio embryo [21] = assay: EC10 Eye size_Decrease; higher = less potent
Experimental: as §1

Danio rerio embryo [22] = assay: EC10 Curvature_Increase; higher = less potent
Experimental: as §1

Danio rerio embryo [23] = assay: EC10 LMR ligth decrease; higher = less potent; conditions: exposure time: 4 dpf
Experimental: as §1

Danio rerio embryo [24] = assay: EC20 LMR ligth decrease; higher = less potent; conditions: exposure time: 4 dpf
Experimental: as §1

Danio rerio embryo [25] = assay: EC20 Curvature_Increase; higher = less potent
Experimental: as §1

Danio rerio embryo [26] = assay: EC20 Body length_Decrease; higher = less potent
Experimental: as §1

Danio rerio embryo [27] = assay: EC10 Body length_Decrease; higher = less potent
Experimental: as §1

Danio rerio embryo [28] = assay: EC10 Pigmentation decrease; higher = less potent
Experimental: as §1

Danio rerio embryo [29] = assay: EC10 Bladder size_Decrease; higher = less potent; conditions: exposure time: 4 dpf
Experimental: as §1

Danio rerio embryo [30] = assay: EC20 Pigmentation decrease; higher = less potent
Experimental: as §1

Danio rerio embryo [31] = assay: EC20 Bladder size_Decrease; higher = less potent; conditions: exposure time: 4 dpf
Experimental: as §1

Danio rerio embryo [32] = assay: EC20 Pericard size_Increase; higher = less potent; conditions: exposure time: 4 dpf
Experimental: as §1

Danio rerio embryo [33] = assay: EC10 Pericard size_Increase; higher = less potent; conditions: exposure time: 4 dpf
Experimental: as §1

Danio rerio embryo [34] = assay: EC20 Eye-jaw distance_Decrease; higher = less potent; conditions: exposure time: 4 dpf
Experimental: as §1

Danio rerio embryo [35] = assay: EC10 Eye-jaw distance_Decrease; higher = less potent; conditions: exposure time: 4 dpf
Experimental: as §1

Danio rerio embryo [36] = assay: EC20 Otolith-eye distance_Decrease; higher = less potent; conditions: exposure time: 4 dpf
Experimental: as §1

Danio rerio embryo [37] = assay: EC10 Otolith-eye distance_Decrease; higher = less potent; conditions: exposure time: 4 dpf
Experimental: as §1

Danio rerio embryo [38] = assay: EC50 Yolk sac size_Decrease; conditions: exposure time: 4 dpf
Experimental: as §1

Danio rerio embryo [39] = assay: EC20 Yolk sac size_Decrease; higher = less potent; conditions: exposure time: 4 dpf
Experimental: as §1

Danio rerio embryo [40] = assay: EC10 Yolk sac size_Decrease; higher = less potent; conditions: exposure time: 4 dpf
Experimental: as §1

Danio rerio embryo [41] = assay: spontaneous tail coiling frequency (coils/min/embryo); higher = more spontaneous movement; conditions: 25 hpf
Experimental: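 Spontaneous tail coilings of zebrafish embryos exposed from 2 hpf were recorded at 24-25 hpf in 1-min videos and detected by a KNIME workflow from grey-value variance. Betamethasone was tested as the dipropionate, diflorasone as the diacetate.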

With `CC(=O)Nc1ccc(O)cc1` [Acetaminophen] the “EC50 Lack of SB” value (Danio rerio embryo [1]) was 1440 µM, the “EC50 Pigmentation decrease” value (Danio rerio embryo [2]; exposure time: 2 dpf) was 1.58 mM and the “EC50 Pigmentation decrease” value (Danio rerio embryo [2]; exposure time: 4 dpf) was 16.3 mM. For the same molecule, the “EC50 Any effect” value (Danio rerio embryo [3]; exposure time: 2 dpf) was 2.69 mM, the “EC50 Any effect” value (Danio rerio embryo [3]; exposure time: 4 dpf) was 1.71 mM and the “EC50 LMR ligth decrease” value (Danio rerio embryo [3]; exposure time: 4 dpf) was 821 µM. For the same molecule, the “EC50 STC bell shape” value (Danio rerio embryo [3]; exposure time: 25 h) was 8.11 mM, the “EC50 LMR dark” value (Danio rerio embryo [4]) was 897 µM and the “EC50 Eye size Decrease” value (Danio rerio embryo [5]; exposure time: 2 dpf) was 2.96 mM. The “EC50 Eye size Decrease” value (Danio rerio embryo [5]; exposure time: 4 dpf) was 1.85 mM, the “EC50 Curvature Increase” value (Danio rerio embryo [6]; exposure time: 2 dpf) was 3.76 mM and the “EC50 Curvature Increase” value (Danio rerio embryo [6]; exposure time: 4 dpf) was 3.83 mM. The “EC50 Body length Decrease” value (Danio rerio embryo [7]; exposure time: 2 dpf) was 3.99 mM, the “EC50 Body length Decrease” value (Danio rerio embryo [7]; exposure time: 4 dpf) was 3.94 mM and the “EC50 Bladder size Decrease” value (Danio rerio embryo [8]) was 1420 µM. For the same molecule, the “EC50 Pericard size Increase” value (Danio rerio embryo [9]) was 3.01 mM, the “EC50 Eye-jaw distance Decrease” value (Danio rerio embryo [10]) was 2.83 mM and the “EC50 Otolith-eye distance Decrease” value (Danio rerio embryo [11]) was 2.72 mM. For the same molecule, the “EC10 LMR dark” value (Danio rerio embryo [12]) was 337 µM, the “EC20 LMR dark” value (Danio rerio embryo [13]) was 500 µM and the “EC10 Lack of SB” value (Danio rerio embryo [14]) was 1080 µM. The “EC20 Lack of SB” value (Danio rerio embryo [15]) was 1200 µM, the “EC20 Any effect” value (Danio rerio embryo [16]; exposure time: 2 dpf) was 2050 µM and the “EC20 Any effect” value (Danio rerio embryo [16]; exposure time: 4 dpf) was 1150 µM. For the same molecule, the “EC10 Any effect” value (Danio rerio embryo [17]; exposure time: 2 dpf) was 1740 µM, the “EC10 Any effect” value (Danio rerio embryo [17]; exposure time: 4 dpf) was 915 µM and the “EC20 STC bell shape” value (Danio rerio embryo [18]) was 6.32 mM. For the same molecule, the “EC10 STC bell shape” value (Danio rerio embryo [19]) was 5.59 mM, the “EC20 Eye size Decrease” value (Danio rerio embryo [20]; exposure time: 2 dpf) was 2300 µM and the “EC20 Eye size Decrease” value (Danio rerio embryo [20]; exposure time: 4 dpf) was 1740 µM. The “EC10 Eye size Decrease” value (Danio rerio embryo [21]; exposure time: 2 dpf) was 1980 µM, the “EC10 Eye size Decrease” value (Danio rerio embryo [21]; exposure time: 4 dpf) was 1670 µM and the “EC10 Curvature Increase” value (Danio rerio embryo [22]; exposure time: 2 dpf) was 2100 µM. For the same molecule, the “EC10 Curvature Increase” value (Danio rerio embryo [22]; exposure time: 4 dpf) was 3130 µM, the “EC10 LMR ligth decrease” value (Danio rerio embryo [23]) was 467 µM and the “EC20 LMR ligth decrease” value (Danio rerio embryo [24]) was 570 µM. For the same molecule, the “EC20 Curvature Increase” value (Danio rerio embryo [25]; exposure time: 2 dpf) was 2600 µM, the “EC20 Curvature Increase” value (Danio rerio embryo [25]; exposure time: 4 dpf) was 3370 µM and the “EC20 Body length Decrease” value (Danio rerio embryo [26]; exposure time: 2 dpf) was 3.5 mM. The “EC20 Body length Decrease” value (Danio rerio embryo [26]; exposure time: 4 dpf) was 3.17 mM, the “EC10 Body length Decrease” value (Danio rerio embryo [27]; exposure time: 2 dpf) was 3.23 mM and the “EC10 Body length Decrease” value (Danio rerio embryo [27]; exposure time: 4 dpf) was 2.79 mM. The “EC10 Pigmentation decrease” value (Danio rerio embryo [28]; exposure time: 2 dpf) was 1010 µM, the “EC10 Pigmentation decrease” value (Danio rerio embryo [28]; exposure time: 4 dpf) was 2380 µM and the “EC10 Bladder size Decrease” value (Danio rerio embryo [29]) was 1020 µM. For the same molecule, the “EC20 Pigmentation decrease” value (Danio rerio embryo [30]; exposure time: 2 dpf) was 1180 µM, the “EC20 Pigmentation decrease” value (Danio rerio embryo [30]; exposure time: 4 dpf) was 2730 µM and the “EC20 Bladder size Decrease” value (Danio rerio embryo [31]) was 1150 µM. For the same molecule, the “EC20 Pericard size Increase” value (Danio rerio embryo [32]) was 2500 µM, the “EC10 Pericard size Increase” value (Danio rerio embryo [33]) was 2250 µM and the “EC20 Eye-jaw distance Decrease” value (Danio rerio embryo [34]) was 2410 µM. The “EC10 Eye-jaw distance Decrease” value (Danio rerio embryo [35]) was 2200 µM, the “EC20 Otolith-eye distance Decrease” value (Danio rerio embryo [36]) was 2080 µM and the “EC10 Otolith-eye distance Decrease” value (Danio rerio embryo [37]) was 1780 µM.
With `C[C@@H]1C[C@H]2[C@@H]3CCC4=CC(=O)C=C[C@]4(C)[C@@]3(F)[C@@H](O)C[C@]2(C)[C@@]1(O)C(=O)CO` [Dexamethasone] the “EC50 Lack of SB” value (Danio rerio embryo [1]) was 16.2 µM, the “EC50 Any effect” value (Danio rerio embryo [3]; exposure time: 4 dpf) was 0.113 mM and the “EC50 Bladder size Decrease” value (Danio rerio embryo [8]) was 14.3 µM. The “EC50 Yolk sac size Decrease” value (Danio rerio embryo [38]) was 259 µM, the “EC50 Pericard size Increase” value (Danio rerio embryo [9]) was 0.226 mM and the “EC10 Lack of SB” value (Danio rerio embryo [14]) was 0.944 µM. The “EC20 Lack of SB” value (Danio rerio embryo [15]) was 2.7 µM, the “EC20 Any effect” value (Danio rerio embryo [16]; exposure time: 4 dpf) was 7.45 µM and the “EC10 Any effect” value (Danio rerio embryo [17]; exposure time: 4 dpf) was 1.52 µM. For the same molecule, the “EC10 Bladder size Decrease” value (Danio rerio embryo [29]) was 1.02 µM, the “EC20 Bladder size Decrease” value (Danio rerio embryo [31]) was 2.7 µM and the “EC20 Yolk sac size Decrease” value (Danio rerio embryo [39]) was 13.1 µM. The “EC10 Yolk sac size Decrease” value (Danio rerio embryo [40]) was 2.27 µM, the “EC20 Pericard size Increase” value (Danio rerio embryo [32]) was 22.8 µM and the “EC10 Pericard size Increase” value (Danio rerio embryo [33]) was 5.95 µM. The “spontaneous tail coiling frequency” value (Danio rerio embryo [41]; 2.5 µM) was 2.19 ± 1.4, the “spontaneous tail coiling frequency” value (Danio rerio embryo [41]; 25.5 µM) was 3.02 ± 0.14 and the “spontaneous tail coiling frequency” value (Danio rerio embryo [41]; 63.7 µM) was 2.67 ± 0.078. For the same molecule, the “spontaneous tail coiling frequency” value (Danio rerio embryo [41]; 127.4 µM) was 3.04 ± 0.58 and the “spontaneous tail coiling frequency” value (Danio rerio embryo [41]; 254.8 µM) was 2.79 ± 1.5.
